Results published in ChEMBL document CHEMBL1155890, “Synthesis of scyllo-inositol derivatives and their effects on amyloid beta peptide aggregation” (Bioorg Med Chem, 2008).
Activity calls are given as the source filed them. The rule behind the calls is not given here.

What was measured:
[1] = Effect on amyloid beta 42 aggregation assessed as inhibition of fiber formation at 5 mM
[2] = Effect on amyloid beta 42 aggregation assessed as inhibition of fiber formation at 3 mM

Activity [1] | Activity [2] | Compound
inactive | – | O[C@@H]1C[C@H](O)[C@@H](O)C[C@H]1O
inactive | – | O[C@@H]1[C@@H](O)[C@H](Cl)[C@@H](O)[C@H](O)[C@H]1Cl

More lines, now with the values behind:

Compound | Activity [1] | Activity [2]
O[C@@H]1[C@@H](O)[C@H](F)[C@@H](O)[C@H](O)[C@H]1F | inactive | –
O[C@@H]1[C@@H](O)[C@H](O)C[C@H](O)[C@H]1O | inactive | –
CO[C@H]1[C@H](O)[C@@H](O)[C@H](O)[C@@H](O)[C@@H]1O | inactive | –
O[C@@H]1[C@@H](O)[C@H](O)[C@@H](Cl)[C@H](O)[C@H]1O | inactive | –
O[C@H]1[C@H](O)[C@@H](O)[C@H](O)[C@@H](O)[C@@H]1O | – | Active
